Among the data in US12202835B2, “Substituted aromatic ring-linked dioxinoquinazolines and dioxinoquinolines as kinase inhibitors” (BEIJING SCITECH-MQ PHARMACEUTICALS LIMITED, priority 2018, dated 2025) are IC50 values, retold here.

In general, IC50 refers to the concentration at which inhibition is half-maximal. A lower IC50 goes with greater potency.

Where only a bound is given, the exact number is not on record here.

One assay deals with TRKA kinase (Homo sapiens (Human), UniProt P04629). Description: Assay of small molecular compounds for inhibiting the activity of TRKA kinase (LANCE TR-FRET). It is filed as biochemical. The procedure, abridged: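 TRKA (supplied as 2 nM 2× solution) was pre-reacted with compounds for 5 min at room temperature before a 4× ULight-TK peptide/ATP mix (400 nM/40 μM) started the 60-min dark reaction at 1% DMSO. After stop and 60-min detection, TR-FRET was read.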
Sequence of TRKA kinase (P04629 33-796): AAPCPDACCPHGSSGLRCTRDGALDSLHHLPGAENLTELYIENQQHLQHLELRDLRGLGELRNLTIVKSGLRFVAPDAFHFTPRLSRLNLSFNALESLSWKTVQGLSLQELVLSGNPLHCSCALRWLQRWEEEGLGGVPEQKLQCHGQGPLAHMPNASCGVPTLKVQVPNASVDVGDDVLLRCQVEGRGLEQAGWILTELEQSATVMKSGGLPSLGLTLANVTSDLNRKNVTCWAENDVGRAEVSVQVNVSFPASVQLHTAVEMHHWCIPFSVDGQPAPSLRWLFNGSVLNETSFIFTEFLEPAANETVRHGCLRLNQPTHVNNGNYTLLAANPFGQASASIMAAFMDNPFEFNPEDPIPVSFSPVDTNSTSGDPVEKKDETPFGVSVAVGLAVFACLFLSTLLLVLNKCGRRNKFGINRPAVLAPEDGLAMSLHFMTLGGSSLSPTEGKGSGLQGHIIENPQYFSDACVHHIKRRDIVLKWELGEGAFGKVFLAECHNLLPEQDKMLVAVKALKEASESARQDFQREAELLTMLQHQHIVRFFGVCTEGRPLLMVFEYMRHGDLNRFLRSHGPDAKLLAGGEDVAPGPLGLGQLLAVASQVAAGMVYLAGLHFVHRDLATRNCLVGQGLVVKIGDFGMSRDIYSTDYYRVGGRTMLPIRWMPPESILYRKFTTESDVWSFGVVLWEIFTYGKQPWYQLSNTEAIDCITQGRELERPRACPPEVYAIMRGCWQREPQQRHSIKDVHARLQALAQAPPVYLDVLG
Background: Time-resolved FRET reads energy transfer from a long-lived donor to a nearby acceptor.

Another assay concerns the target MER kinase (Homo sapiens (Human), UniProt Q12866). Description: Assay of small molecular compounds for inhibiting the activity of MER kinase (LANCE TR-FRET). It is filed as biochemical. The procedure, abridged: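 LANCE TR-FRET readout of ULight-poly GT phosphorylation by MER kinase; compound final range 0.042-2500 nM, 3-fold steps, 5 min enzyme preincubation. Reaction 60 min at room temperature in the dark with substrate/ATP (4× at 200 nM/20 μM), 1% DMSO, then stopped and developed 60 min; IC50 by curve fit.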

The subject of the next assay is Ba/F3 LMNA-NTRK1 cells. Put plainly: Assay for inhibiting the proliferation of Ba/F3 LMNA-NTRK1 cells (CCK-8). It is filed as cell-based. The settings on record: Mus musculus, BaF3. A digest of the protocol: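 Viability was read as absorbance at 450 nm following 1–2 h CCK-8 incubation at 37 °C, relative to control and blank wells.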

Sequence of MER kinase (Q12866 21-999): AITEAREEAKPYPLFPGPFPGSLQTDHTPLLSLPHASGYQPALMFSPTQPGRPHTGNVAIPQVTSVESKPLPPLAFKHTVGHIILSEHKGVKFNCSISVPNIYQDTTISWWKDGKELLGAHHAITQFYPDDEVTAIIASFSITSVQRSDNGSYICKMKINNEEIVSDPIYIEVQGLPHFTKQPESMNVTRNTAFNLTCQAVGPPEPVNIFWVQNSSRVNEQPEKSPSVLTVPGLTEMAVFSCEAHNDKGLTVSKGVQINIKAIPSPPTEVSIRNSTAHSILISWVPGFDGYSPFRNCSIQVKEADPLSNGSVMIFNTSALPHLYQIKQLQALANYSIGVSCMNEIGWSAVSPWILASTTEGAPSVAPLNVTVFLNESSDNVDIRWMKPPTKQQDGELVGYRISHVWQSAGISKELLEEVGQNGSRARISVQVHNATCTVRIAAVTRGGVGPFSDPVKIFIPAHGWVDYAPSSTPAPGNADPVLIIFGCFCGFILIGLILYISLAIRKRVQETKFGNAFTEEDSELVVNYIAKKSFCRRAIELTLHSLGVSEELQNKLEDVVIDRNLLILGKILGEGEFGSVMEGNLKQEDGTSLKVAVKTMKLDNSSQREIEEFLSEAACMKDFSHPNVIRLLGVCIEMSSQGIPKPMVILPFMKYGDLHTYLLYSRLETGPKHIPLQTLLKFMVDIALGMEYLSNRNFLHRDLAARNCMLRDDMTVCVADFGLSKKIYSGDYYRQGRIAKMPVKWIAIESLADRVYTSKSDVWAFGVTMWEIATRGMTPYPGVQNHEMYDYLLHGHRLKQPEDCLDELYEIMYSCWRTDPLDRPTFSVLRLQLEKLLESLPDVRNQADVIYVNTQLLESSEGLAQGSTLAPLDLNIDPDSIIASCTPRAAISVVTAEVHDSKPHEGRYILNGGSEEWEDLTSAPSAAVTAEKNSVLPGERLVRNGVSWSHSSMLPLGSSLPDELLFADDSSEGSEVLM

Take `CCOc1ccn(-c2ccc(F)cc2)c(=O)c1C(=O)Nc1ccc(Oc2ncnc3cc(OCCCN4CCOCC4)c4c(c23)OCCO4)c(F)c1` [Example 6, N-(3-fluoro-4-((5-(3-morpholinopropoxy)-2,3-dihydro-[1,4]dioxino[2,3-f]quinazolin-10-yl)oxy)phenyl)-1-(4-fluorophenyl)-4-ethoxy-2-oxo-1,2-dihydropyridine-3-carboxamide]: the half-maximal inhibitory concentration (IC50) was less than 50 nM against TRKA kinase, not above 50 nM against MER kinase and less than 50 nM in the assay on Ba/F3 LMNA-NTRK1 cells.

Take `CCOc1cc2nccc(Oc3ccc(NC(=O)c4cn(C)c(=O)n(-c5ccc(F)cc5)c4=O)c(Cl)c3)c2c2c1OCCO2` [Example 129, N-(2-chloro-4-((5-ethoxy-2,3-dihydro-[1,4]dioxino[2,3-f]quinolin-10-yl)oxy)phenyl)-3-(4-fluorophenyl)-1-methyl-2,4-dioxo-1,2,3,4-tetrahydropyrimidine-5-carboxamide]: the IC50 against TRKA kinase is less than 50 nM; at MER kinase, not above 50 nM; in the assay with Ba/F3 LMNA-NTRK1 cells, less than 50 nM.

Consider `CCOc1cc2nccc(Oc3ccc(NC(=O)c4c(OC)ccn(-c5ccc(F)cc5)c4=O)c(Cl)c3)c2c2c1OCCO2` [Example 128, N-(2-chloro-4-((5-ethoxy-2,3-dihydro-[1,4]dioxino[2,3-f]quinolin-10-yl)oxy)phenyl)-1-(4-fluorophenyl)-4-methoxy-2-oxo-1,2-dihydropyridine-3-carboxamide], for which the values for the IC50 against TRKA kinase, against MER kinase and in the assay on Ba/F3 LMNA-NTRK1 cells were less than 50 nM, not above 50 nM and less than 50 nM, respectively.

For the compound `CCOc1cc2nccc(Oc3ccc(NC(=O)c4c(OCC)ccn(-c5ccc(F)cc5)c4=O)c(Cl)c3)c2c2c1OCCO2` [Example 130, N-(2-chloro-4-((5-ethoxy-2,3-dihydro-[1,4]dioxino[2,3-f]quinolin-10-yl)oxy)phenyl)-1-(4-fluorophenyl)-4-ethoxy-2-oxo-1,2-dihydropyridine-3-carboxamide], the IC50 was less than 50 nM against TRKA kinase, not above 50 nM against MER kinase and less than 50 nM with Ba/F3 LMNA-NTRK1 cells.

Take `Cn1cc(C(=O)Nc2ccc(Oc3ncnc4cc(OCCCN5CCOCC5)c5c(c34)OCCO5)c(F)c2)c(=O)n(-c2ccc(F)cc2)c1=O` [Example 30, N-(3-fluoro-4-((5-(3-morpholinopropoxy)-2,3-dihydro-[1,4]dioxino[2,3-f]quinazolin-10-yl)oxy)phenyl)-3-(4-fluorophenyl)-1-methyl-2,4-dioxo-1,2,3,4-tetrahydropyrimidine-5-carboxamide]: the results for the IC50 against TRKA kinase, at MER kinase and in the assay on Ba/F3 LMNA-NTRK1 cells were less than 50 nM, not above 50 nM and less than 50 nM, respectively.

With `CCOc1ccn(-c2ccc(F)cc2)c(=O)c1C(=O)Nc1ccc(Oc2ccnc3cc(OCCCN4CCCCC4)c4c(c23)OCCO4)cc1Cl` [Example 138, N-(2-chloro-4-((5-((3-piperidin-1-yl)propoxy)-2,3-dihydro-[1,4]dioxino[2,3-f]quinolin-10-yl)oxy)phenyl)-1-(4-fluorophenyl)-4-ethoxy-2-oxo-1,2-dihydropyridine-3-carboxamide], the concentration for half-maximal inhibition (IC50) against TRKA kinase was less than 50 nM; at MER kinase it was not above 50 nM; with Ba/F3 LMNA-NTRK1 cells it was less than 50 nM.

With `COc1ccn(-c2ccc(F)cc2)c(=O)c1C(=O)Nc1ccc(Oc2ccnc3cc(OCCCN4CCCCC4)c4c(c23)OCCO4)cc1Cl` [Example 136, N-(2-chloro-4-((5-((3-piperidin-1-yl)propoxy)-2,3-dihydro-[1,4]dioxino[2,3-f]quinolin-10-yl)oxy)phenyl)-1-(4-fluorophenyl)-4-methoxy-2-oxo-1,2-dihydropyridine-3-carboxamide], the IC50 on TRKA kinase is less than 50 nM; at MER kinase, not above 50 nM; in the assay with Ba/F3 LMNA-NTRK1 cells, less than 50 nM.

Take `CC(C)n1cc(C(=O)Nc2ccc(Oc3ccnc4cc(OCCCN5CCOCC5)c5c(c34)OCCO5)c(Cl)c2)c(=O)n(-c2ccc(F)cc2)c1=O` [Example 97, N-(3-chloro-4-((5-(3-morpholinopropoxy)-2,3-dihydro-[1,4]dioxino[2,3-f]quinolin-10-yl)oxy)phenyl)-3-(4-fluorophenyl)-1-isopropyl-2,4-dioxo-1,2,3,4-tetrahydropyrimidine-5-carboxamide]: the IC50 against TRKA kinase is less than 50 nM; against MER kinase it was not above 50 nM; in the assay with Ba/F3 LMNA-NTRK1 cells, less than 50 nM.
